Among the data in PubChem BioAssay (NCI) are TGI values, retold here.

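Where inhibition never reached the appropriate level, the endpoint shown equals the highest concentration tested. Otherwise, values were interpolated linearly from a five-concentration, 48-hour dose response in 96-well plates. TGI: total growth inhibition.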

Test systems include A498 renal; MCF7 breast; HOP-92 NSCLC; IGROV1 ovarian; TK-10 renal; SK-MEL-5 melanoma; SK-MEL-2 melanoma; EKVX NSCLC; HT29 colon; LOX IMVI melanoma.
Holding throughout (test): growth of human tumour cells (NCI), 48 h

Regarding `CN(C)CCc1c2c(nc3ccccc13)C(=O)c1cccnc1C2=O`, the TGI in the assay with A498 renal turned out to be 1.72 µM; with MCF7 breast, 1.59 µM; in the assay with HOP-92 NSCLC it was 8.76 µM; with IGROV1 ovarian, 2.14 µM; in the assay with TK-10 renal it was 2.94 µM; with SK-MEL-5 melanoma it was 0.672 µM. The TGI was found to be 4.21 µM in the assay with SK-MEL-2 melanoma, 5.73 µM in the assay with EKVX NSCLC, 8.35 µM with HT29 colon and 0.13 µM in the assay with LOX IMVI melanoma.
As to `Clc1ccc2oc(CCc3ccccc3)nc2c1`, the TGI in the assay on A498 renal was 60 µM; with MCF7 breast, greater than 100 µM; with HOP-92 NSCLC, greater than 100 µM; in the assay on IGROV1 ovarian, greater than 100 µM; in the assay on TK-10 renal, greater than 100 µM; in the assay on SK-MEL-5 melanoma, 55.4 µM. The TGI in the assay on SK-MEL-2 melanoma, in the assay with EKVX NSCLC, with HT29 colon and in the assay on LOX IMVI melanoma was greater than 100 µM each time.
`CN(CCCNC(=O)c1cc(-c2ccccc2)nc2ccccc12)CCCNC(=O)c1cc(-c2ccccc2)nc2ccccc12`: the TGI came out at 10.1 µM in the assay with A498 renal; 3.2 µM in the assay on MCF7 breast; 9.85 µM with HOP-92 NSCLC; 13.7 µM in the assay on IGROV1 ovarian; 14.9 µM with TK-10 renal; 3.08 µM with SK-MEL-5 melanoma. The TGI turned out to be 3.67 µM with SK-MEL-2 melanoma, 17.2 µM in the assay on EKVX NSCLC, 3.46 µM in the assay with HT29 colon and 3.56 µM with LOX IMVI melanoma.
Consider `CCN(CCN(CC)C(=O)Nc1ccccc1)C(=O)Nc1ccccc1`, for which the TGI with A498 renal, in the assay on MCF7 breast, in the assay on HOP-92 NSCLC, with IGROV1 ovarian, in the assay on TK-10 renal and in the assay with SK-MEL-5 melanoma was greater than 100 µM in each case. The TGI in the assay on SK-MEL-2 melanoma, in the assay with EKVX NSCLC, in the assay with HT29 colon and with LOX IMVI melanoma was greater than 100 µM throughout.
As to `CCOC(=O)c1c[nH]c2ccc3c(c2c1=O)S(=O)(=O)CC3` (tested in a mixture with another compound), the TGI in the assay on A498 renal, in the assay on MCF7 breast, in the assay with HOP-92 NSCLC, with IGROV1 ovarian, in the assay with SK-MEL-5 melanoma and in the assay with SK-MEL-2 melanoma was greater than 100 µM throughout. Also, the TGI with EKVX NSCLC, in the assay with HT29 colon and in the assay with LOX IMVI melanoma was greater than 100 µM in each case.
Regarding `CCc1ccc2c(c1)N(CC(C)CN(C)C)c1ccccc1S2` (centres undefined), the TGI is 21.8 µM in the assay on A498 renal; 11.5 µM in the assay on MCF7 breast; 15.4 µM with HOP-92 NSCLC; 15 µM with IGROV1 ovarian; 11.4 µM in the assay with TK-10 renal; 8.1 µM in the assay with SK-MEL-5 melanoma. In addition, the TGI in the assay on SK-MEL-2 melanoma turned out to be 12 µM; with EKVX NSCLC it was 24.3 µM; in the assay on HT29 colon, 12.5 µM; in the assay on LOX IMVI melanoma it was 10.3 µM.
As to `c1ccc(N=C2c3ccsc3C(=Nc3ccccc3)c3ccsc32)cc1`, the TGI with A498 renal came to 14.8 µM; with MCF7 breast, 4.79 µM; in the assay with HOP-92 NSCLC, 9.37 µM; in the assay with IGROV1 ovarian, 4 µM; in the assay on TK-10 renal, 13.7 µM; in the assay on SK-MEL-5 melanoma, 2.35 µM. Besides, the TGI in the assay with SK-MEL-2 melanoma stood at 3.38 µM; in the assay with EKVX NSCLC, 4.31 µM; in the assay on HT29 colon, 13.7 µM; in the assay with LOX IMVI melanoma, 1.38 µM.
Regarding `COc1cccc(C(=O)C#Cc2cnc(OC)nc2OC)c1`, the TGI was 22.1 µM with A498 renal; 1.28 µM with MCF7 breast; 4.28 µM in the assay on HOP-92 NSCLC; 2.12 µM in the assay on IGROV1 ovarian; 2.91 µM in the assay on TK-10 renal; 3.06 µM with SK-MEL-5 melanoma. Moreover, the TGI is 3.95 µM with SK-MEL-2 melanoma, 3.9 µM with EKVX NSCLC, 2.67 µM in the assay on HT29 colon and 0.25 µM in the assay with LOX IMVI melanoma.
Regarding `CO/N=C1/c2sccc2[C@H](NC(=O)C(Cc2ccccc2)NC(=O)OC(C)(C)C)[C@@H]1O` (some centres undefined), the TGI in the assay with A498 renal, in the assay with MCF7 breast, in the assay with HOP-92 NSCLC, in the assay with IGROV1 ovarian, with TK-10 renal and with SK-MEL-5 melanoma was greater than 100 µM each time. Also, the TGI with SK-MEL-2 melanoma, with EKVX NSCLC, in the assay on HT29 colon and with LOX IMVI melanoma was greater than 100 µM in each case.
As to `CCCn1c(=O)c(N2CCN(c3ccccc3)CC2)nc2sc3ccccc3c21`, the TGI with A498 renal, with MCF7 breast, with HOP-92 NSCLC, with IGROV1 ovarian, in the assay with TK-10 renal and in the assay on SK-MEL-5 melanoma was greater than 100 µM each time. In addition, the TGI in the assay with SK-MEL-2 melanoma, in the assay on EKVX NSCLC, in the assay on HT29 colon and in the assay on LOX IMVI melanoma was greater than 100 µM each time.
On to `COC(=O)C(Cc1c[nH]c2ccccc12)N=C1Nc2ccncc2S(=O)(=O)N1c1cccc(OC(C)C)c1` (centres undefined), for which the TGI with A498 renal was greater than 100 µM; in the assay on MCF7 breast, greater than 100 µM; in the assay with HOP-92 NSCLC, 43.3 µM; in the assay with IGROV1 ovarian, greater than 100 µM; in the assay with TK-10 renal, greater than 100 µM; in the assay with SK-MEL-5 melanoma, greater than 100 µM. For the same compound, the TGI in the assay with SK-MEL-2 melanoma, in the assay with EKVX NSCLC, in the assay on HT29 colon and with LOX IMVI melanoma was greater than 100 µM throughout.
As for `COc1ccc(C2=NOC(N)(c3ccc(OC)cc3)C2)cc1` (centres undefined), the TGI with A498 renal, in the assay on MCF7 breast, in the assay with HOP-92 NSCLC, with IGROV1 ovarian, in the assay with TK-10 renal and in the assay with SK-MEL-5 melanoma was greater than 100 µM in each case. Moreover, the TGI in the assay on SK-MEL-2 melanoma, in the assay on EKVX NSCLC, in the assay on HT29 colon and with LOX IMVI melanoma was greater than 100 µM each time.
As for `N#Cc1nc(C#N)n(S(=O)(=O)c2ccccc2)c1NS(=O)(=O)c1ccccc1`, the TGI in the assay on A498 renal, in the assay on MCF7 breast, with HOP-92 NSCLC, in the assay with IGROV1 ovarian, in the assay with TK-10 renal and in the assay with SK-MEL-5 melanoma was greater than 100 µM each time. The TGI in the assay on SK-MEL-2 melanoma is greater than 31.6 µM; in the assay with EKVX NSCLC it was greater than 100 µM; in the assay with HT29 colon it was greater than 100 µM; with LOX IMVI melanoma, greater than 100 µM.
